Measured values from patent US10159254B2, “Weed control methods” (Syngenta Participations AG, priority 2013, dated 2018).

Legend:
SYHT0H2 soybeans [1] = test: Greenhouse: tank-mix and sequential Sequestrene 138Fe, HPPD-inhibitor maximum injury; format: in vivo, soybean; settings: mesotrione 420, bicyclopyrone 200, tembotrione 368 g ai/ha
Procedure: Effect of Tank-mix and Sequential Application of Sequestrene® 138 on Mesotrione (Applied as Callisto®)—Maximum Injury in SYHT0H2 Soybeans
An experiment is conducted in the greenhouse to determine the effect of chelated iron (Sequestrene 138Fe containing 6% iron) on HPPD-inhibitor injury to SYHT0H2 soybeans. Soybeans are grown in pots filled with a greenhouse potting mix. When the plants reach the V2-V3 stage, they are sprayed with an HPPD-inhibitor herbicide applied alone (Treatment 1), or in tank mixture with Sequestrene 138Fe (Treatment 2), or sequentially with Sequestrene 138Fe applied 1 day before the HPPD inhibitor (Treatment 3). Sequestrene 138Fe is applied at 2240 g/ha (equivalent to 134 g iron/ha). All treatments are applied with liquid ammonium sulfate @ 2.5% v/v and a non-ionic surfactant (NIS) @ 0.25% v/v in 150 L/ha water. Observations on percent injury are recorded 5, 11, or 22 days after treatment. Data presented are maximum injury observed during the trial.

SYHT0H2 soybeans [2] = test: Greenhouse: Sequestrene 138Fe rate series, percent injury from HPPD-inhibitors at 7 DAT; format: in vivo, soybean; settings: mesotrione 420, bicyclopyrone 200, tembotrione 368, topramezone 72 g/ha
Procedure: Effect of Sequestrene® 138Fe on Percent Injury from Various HPPD-inhibitors on SYHT0H2 Soybeans. Injury Assessed at Seven Days after Treatment (7 DAT)
SYHT0H2 soybeans are grown in 4×4-inch pots filled with a greenhouse potting mix. When the plants reach the V2-V3 growth stage, they are treated with an HPPD inhibitor applied alone or in a tank mixture with Sequestrene 138Fe at various rates ranging from 140 g product/ha (equivalent to 8.4 g iron/ha) to 2240 g product/ha (equivalent to 134 g iron/ha).

[3] = tested on: common waterhemp (Amaranthus rudis); test: Greenhouse weed control: HPPD inhibitors with or without Sequestrene 138Fe, common waterhemp; format: in vivo; settings: common waterhemp control 17 DAT
Procedure: A greenhouse experiment is conducted to determine the effect of chelated iron on weed control in the greenhouse. Velvetleaf (Abutilon theophrasti) and common waterhemp (Amaranthus rudis) plants are grown in 4×4-inch pots filled with a greenhouse potting mix. When the plants reached the 2 to 3 inch height (2 to 3 leaf stage), they are sprayed with a reduced rate of an HPPD inhibitor alone or in a tank mix combination with Sequestrene 138Fe at 140 g/ha (equivalent to 8.4 g iron/hectare) or 280 g/ha (equivalent to 16.8 g iron/hectare). […] Observations on percent control are recorded 12, 19, and 25 days after treatment.
Effect of Tank Mix Applications of Various HPPD Inhibitors and Sequestrene 138Fe on Common Waterhemp Control. Injury Assessed 17 DAT
An experiment is performed to look at the effect of applying iron chelates on control of Common Waterhemp using HPPD-inhibiting herbicides. Experiment design is analogous to that outlined in Experiment 3 above.

SYHT04R soybeans = test: Greenhouse: Sequestrene 138Fe safening of HPPD-inhibitors, injury 6 days after treatment; format: in vivo, soybean; settings: 6 days after treatment (maximum injury), mesotrione 420, bicyclopyrone 200, isoxaflutole 280 g/ha
Procedure: Effect of Sequestrene® 138Fe on Various HPPD-inhibitors in SYHT04R Soybeans. Maximum Injury Assessed 6 Days after Treatment
A greenhouse experiment is conducted to determine if Sequestrene® 138Fe was effective in safening various other HPPD herbicide-tolerant soybean events, such as SYHT04R.
SYHT04R soybean plants are grown in 4×4-inch pots filled with a greenhouse potting mix. When the plants reached the V2-V3 growth stage, they are sprayed with an HPPD inhibitor alone or in combination with Sequestrene® 138Fe at 1120 g/ha (equivalent to 67.2 g iron/ha). […] Observations on percent injury are recorded at 6 and 20 days after treatment. Data presented is from the 6 days after treatment rating representing the maximum injury observed during the experiment.

SYHT0H2 soybeans [4] = test: Greenhouse: water-soluble iron compounds safening mesotrione, maximum injury; settings: mesotrione 420 g ai/ha, additive none; maximum injury of 6, 9, 16 days after treatment
Procedure: An experiment is conducted to look at the safening effect of a variety of water-soluble iron-containing compounds. SYHT0H2 soybean plants are grown in small pots filled with a greenhouse potting mix. […] In all cases, mesotrione was applied at 420 g ai/ha and all treatments contained liquid ammonium sulphate at 2.5% v/v and NIS at 0.25% v/v. The application rates of iron-containing compounds indicated are iron equivalent rates. […] Percent injury levels were assessed 6, 9, and 16 days after treatment. Data presented are maximum injury occurring from any of the treatments at any time during the experiment.

CS(=O)(=O)c1ccc(C(=O)C2C(=O)CCCC2=O)c([N+](=O)[O-])c1 [Mesotrione, mesotrione]
% Maximum Injury (SYHT0H2 soybeans [1]; Sequestrene 138Fe 2240 g/ha applied 1 day before herbicide (Treatment 3, sequential)): 7%
% Maximum Injury (SYHT0H2 soybeans [1]; herbicide alone (Treatment 1), maximum of 5, 11, 22 days after treatment): 20%
% Maximum Injury (SYHT0H2 soybeans [1]; tank mix with Sequestrene 138Fe 2240 g/ha (Treatment 2, simultaneous)): 0%
% Injury (SYHT0H2 soybeans [2]; Sequestrene 138Fe 0 g/ha): 15%
% Injury (SYHT0H2 soybeans [2]; Sequestrene 138Fe 140 g/ha tank mix): 13%
% Injury (SYHT0H2 soybeans [2]; Sequestrene 138Fe 280 g/ha tank mix): 2%
% Injury (SYHT0H2 soybeans [2]; Sequestrene 138Fe 560 g/ha tank mix): 1%
% Injury (SYHT0H2 soybeans [2]; Sequestrene 138Fe 1120 g/ha tank mix): 0%
% Injury (SYHT0H2 soybeans [2]; Sequestrene 138Fe 2240 g/ha tank mix): 0%
% Injury ([3]; Sequestrene 138Fe 0 g/ha, g ai/ha: mesotrione 26, isoxaflutole 26, bicyclopyrone 50, tembotrione 46, pyrasulfatole 22, topramezone 18): 77%
% Injury ([3]; Sequestrene 138Fe 140 g/ha tank mix, mesotrione 26, isoxaflutole 26 g ai/ha): 78%
% Injury (SYHT04R soybeans; Sequestrene 138Fe 0 g/ha): 23%
% Injury (SYHT04R soybeans; Sequestrene 138Fe 1120 g/ha): 3%
% Injury (SYHT0H2 soybeans [4]): 17%
